Data taken from the NIST ThermoML archive (doi:10.1016/j.fluid.2014.04.004).
Numbers after ± are expanded uncertainties. Blank lines part the entries; values can stand above or below the compound they belong to.

Key:
[1] = Liquid, Closed cell (Static) method
[2] = excess molar enthalpy (molar enthalpy of mixing); xn = mol fraction of the nth substance listed; settings: 303.15 K, 101 kPa, Liquid, Calvet calorimetry

Compound: Cc1cccc(C)n1 [2,6-dimethylpyridine]
vapor or sublimation pressure ([1]; 283.37 K): 0.3 ± 0.004 kPa
vapor or sublimation pressure ([1]; 288.33 K): 0.42 ± 0.004 kPa
vapor or sublimation pressure ([1]; 293.3 K): 0.581 ± 0.006 kPa
vapor or sublimation pressure ([1]; 298.3 K): 0.794 ± 0.007 kPa
vapor or sublimation pressure ([1]; 303.27 K): 1.07 ± 0.01 kPa
vapor or sublimation pressure ([1]; 313.27 K): 1.879 ± 0.012 kPa
vapor or sublimation pressure ([1]; 323.24 K): 3.163 ± 0.015 kPa
vapor or sublimation pressure ([1]; 333.21 K): 5.14 ± 0.019 kPa
vapor or sublimation pressure ([1]; 343.2 K): 8.101 ± 0.026 kPa
vapor or sublimation pressure ([1]; 353.14 K): 12.23 ± 0.034 kPa

Compound: Cc1cccc(C)n1 [2,6-dimethylpyridine] + C1CCCCC1
excess molar enthalpy ([2]; x1 = 0.09): 0.123 ± 0.00263 kcal/mol
excess molar enthalpy ([2]; x1 = 0.22): 0.239 ± 0.00311 kcal/mol
excess molar enthalpy ([2]; x1 = 0.275): 0.269 ± 0.00311 kcal/mol
excess molar enthalpy ([2]; x1 = 0.308): 0.281 ± 0.00311 kcal/mol
excess molar enthalpy ([2]; x1 = 0.434): 0.299 ± 0.00335 kcal/mol
excess molar enthalpy ([2]; x1 = 0.529): 0.283 ± 0.00335 kcal/mol
excess molar enthalpy ([2]; x1 = 0.669): 0.226 ± 0.00287 kcal/mol
excess molar enthalpy ([2]; x1 = 0.806): 0.142 ± 0.00263 kcal/mol
excess molar enthalpy ([2]; x1 = 0.8998): 0.0748 ± 0.00263 kcal/mol

Compound: Cc1cncc(C)c1 [3,5-dimethylpyridine]
vapor or sublimation pressure ([1]; 273.5 K): 0.04 ± 0.001 kPa
vapor or sublimation pressure ([1]; 283.45 K): 0.085 ± 0.002 kPa
vapor or sublimation pressure ([1]; 293.47 K): 0.172 ± 0.002 kPa
vapor or sublimation pressure ([1]; 303.54 K): 0.331 ± 0.004 kPa
vapor or sublimation pressure ([1]; 313.56 K): 0.612 ± 0.006 kPa
vapor or sublimation pressure ([1]; 323.59 K): 1.078 ± 0.01 kPa
vapor or sublimation pressure ([1]; 333.66 K): 1.824 ± 0.011 kPa
vapor or sublimation pressure ([1]; 343.62 K): 2.973 ± 0.014 kPa
vapor or sublimation pressure ([1]; 353.63 K): 4.688 ± 0.018 kPa

The remaining lines, values ahead:

excess molar enthalpy ([2]; x1 = 0.085): 0.112 ± 0.00263 kcal/mol
excess molar enthalpy ([2]; x1 = 0.221): 0.227 ± 0.00311 kcal/mol
excess molar enthalpy ([2]; x1 = 0.312): 0.276 ± 0.00311 kcal/mol
excess molar enthalpy ([2]; x1 = 0.386): 0.295 ± 0.00335 kcal/mol
excess molar enthalpy ([2]; x1 = 0.515): 0.306 ± 0.00335 kcal/mol
excess molar enthalpy ([2]; x1 = 0.635): 0.279 ± 0.00311 kcal/mol
excess molar enthalpy ([2]; x1 = 0.735): 0.217 ± 0.00287 kcal/mol
excess molar enthalpy ([2]; x1 = 0.83): 0.149 ± 0.00263 kcal/mol
excess molar enthalpy ([2]; x1 = 0.899): 0.0951 ± 0.00263 kcal/mol
Compound: Cc1cncc(C)c1 [3,5-dimethylpyridine] + C1CCCCC1

vapor or sublimation pressure ([1]; 283.32 K): 6.389 ± 0.023 kPa
vapor or sublimation pressure ([1]; 288.28 K): 8.195 ± 0.026 kPa
vapor or sublimation pressure ([1]; 293.27 K): 10.42 ± 0.031 kPa
vapor or sublimation pressure ([1]; 298.25 K): 13.17 ± 0.037 kPa
vapor or sublimation pressure ([1]; 303.27 K): 16.45 ± 0.046 kPa
vapor or sublimation pressure ([1]; 313.24 K): 24.97 ± 0.062 kPa
vapor or sublimation pressure ([1]; 323.21 K): 36.72 ± 0.086 kPa
vapor or sublimation pressure ([1]; 333.21 K): 52.48 ± 0.12 kPa
vapor or sublimation pressure ([1]; 343.18 K): 72.98 ± 0.15 kPa
vapor or sublimation pressure ([1]; 353.14 K): 99.11 ± 0.2 kPa
Compound: C1CCCCC1 [cyclohexane]
